Source: article PMC4911353, “Pharmacologic Inhibition of Host Phosphodiesterase-4 Improves Isoniazid-Mediated Clearance of Mycobacterium tuberculosis” (Frontiers in Immunology, 2016)
Like-named read-outs stand apart in the source and are kept apart here.

How the values were obtained:
[1] = Plasma pharmacokinetics of CC-11050 in mice after a single oral gavage (LC-MS/MS); type: in vivo; settings: for Plasma concentration of CC-11050: mean ± SD
Experimental: The PDE4i, CC-11050 (N-[2-[(1S)-1-(3-ethoxy-4-methoxyphenyl)-2-(methylsulfonyl) ethyl]-2,3-dihydro-3-oxo-1H-isoindol-4-yl]-(9Cl) cyclopropanecarboxamide) has an empirical formula of C24H28N2O6S with one chiral center (Figure S1A in Supplementary Material). Uninfected mice (n = 3 per group) were treated with 5, 25, or 50 mg/kg of CC-11050 by oral gavage. In another experiment, mice (n = 3) were treated with 50 mg/kg of CC-11050 plus 50 mg/kg of INH. A group of mice (n = 3) without treatment were included as negative control. Venous blood was collected at 1, 2, 5, 8, and 24 h after a single gavage administration of CC-11050, with or without INH. Time-matched blood samples were also collected from untreated mice. The animals were gavaged after overnight fasting and fed soon after gavage. Plasma was collected by centrifugation of blood samples at 1,100× g for 10 min at 10°C and used for LC-MS/MS analysis.
The standard curve and quality control for CC-11050 were prepared in mouse plasma diluted 1:1 with Sorenson’s Citrate Buffer (25 mM; pH 1.5). Internal standard was prepared with ^13CD3-CC-11050 and mixed with the standard, quality control, or test samples at 4:1:1 (^13CD3-CC-11050:mouse plasma:Sorenson’s Citrate Buffer, vol/vol/vol) ratio. The mix was centrifuged at 4,000 rpm for 10 min at room temperature, and the supernatant was transferred to a 96-well assay plate. LC-MS/MS was performed using a Sciex API 4000 triple quadrupole mass spectrometer (Sciex, Division of MDS Inc., Canada) coupled to a Shimadzu HPLC system (Shimadzu Scientific Instruments, MD, USA). A Phenomenex Gemini column (5 μm, 2.0 mm × 50 mm; Phenomenex, CA, USA) was used for chromatography with 0.1% formic acid in water (mobile phase A) and 0.1% formic acid in acetonitrile (mobile phase B). The parameters used were 0 min for 10%B, 0.0–2.0 min for 10–75%B, 2.1–3.0 min for 95%B, and 3.05–4.0 min for 10%B. For mass spectrometric detection, a positive ion mode with turbo spray (ion source temperature of 450°C) and a dwell time of 100 ms was used. Analytes were quantified using multiple reactions monitoring (MRM) at the following transitions: mass-to-charge ratio 473.1–178.1 and 477.1–182.1 m/z for CC-11050 and its internal standard, respectively. Peak area ratios of the analyte to its internal standard versus analyte concentration, represented as quadratic regression plots, were derived with 1/x^2 weighting. Watson LIMS™ software was used to determine the pharmacokinetic parameters (Thermo Fisher, PA, USA). Peak plasma concentration (Cmax) and corresponding time (Tmax) were calculated from raw data. Area under the plasma concentration-time curve (AUC) was determined by linear/linear-log trapezoidal rule of non-compartmental model using data from time 0 and the last measurable time point (AUClast). All statistics were performed with Watson LIMS™ software. Plasma concentrations below the limit of quantitation (BLOQ) were treated as 0 for calculation.

[2] = tested on: Mycobacterium tuberculosis CDC1551; type: in vivo; settings: in vivo, 50 mg/kg
lung granulomas = assay: Histology and morphometric measurement of lung granulomas in Mtb-infected mice; type: in vivo; settings: 28 days postinfection (14 days of treatment), histology
Experimental: Formalin-fixed lung tissues of Mtb-infected mice were paraffin-embedded, cut into […] sections, and stained with hematoxylin and eosin (H&E) or acid fast staining by Ziehl–Neelsen (ZN) method to visualize host cells and Mtb, respectively (IDEXX-RADIL Laboratories Inc., MO, USA) as described in Ref. ([11]). Stained sections were photographed in a Nikon Microphot-FX photomicrographic system and analyzed with NIS-Elements F3.0 software (Nikon Instruments Inc., NY, USA). Lung granuloma size was morphometrically measured using PathScan Enabler IV scanner (Meyer Instruments, Houston, TX, USA) and SigmaScan Pro software (Systat Software, Inc., CA, USA). Histopathologic analysis and morphometry were performed by an experienced pathologist blinded to the sample identity.

[3] = design: method as in PMID 26981575; settings: rabbits, cited from earlier work
[4] = single oral dose 50 mg/kg CC-11050 + 50 mg/kg INH
[5] = single oral dose 50 mg/kg CC-11050 only

For `CCOc1cc([C@@H](CS(C)(=O)=O)N2Cc3cccc(NC(=O)C4CC4)c3C2=O)ccc1OC` [CC-11050, N-[2-[(1S)-1-(3-ethoxy-4-methoxyphenyl)-2-(methylsulfonyl)ethyl]-2,3-dihydro-3-oxo-1H-isoindol-4-yl]-(9Cl) cyclopropanecarboxamide], the AUClast ([1]; single oral dose 5 mg/kg) was 1,080 ng × h/ml, the AUClast ([1]; single oral dose 25 mg/kg) was 2,800 ng × h/ml and the AUClast [1, 4] was 13,900 ng × h/ml. The Cmax [1, 4] was 1,610 ng/ml, the Tmax [1, 4] was 5.0 h and the “Plasma concentration of CC-11050” value ([1]; single oral dose 50 mg/kg CC-11050 + 50 mg/kg INH, 1 h) was 905.35 ± 594.23 ng/mL. For the same compound, the “Plasma concentration of CC-11050” value ([1]; single oral dose 50 mg/kg CC-11050 + 50 mg/kg INH, 2 h) was 1,309.39 ± 214.08 ng/ml, the “Plasma concentration of CC-11050” value ([1]; single oral dose 50 mg/kg CC-11050 + 50 mg/kg INH, 5 h) was 1,609.18 ± 167.2 ng/ml and the “Plasma concentration of CC-11050” value ([1]; single oral dose 50 mg/kg CC-11050 + 50 mg/kg INH, 8 h) was 1,271.73 ± 249.18 ng/ml. The “Plasma concentration of CC-11050” value ([1]; single oral dose 50 mg/kg CC-11050 + 50 mg/kg INH, 24 h) was 4.96 ± 1.85 ng/mL, the AUClast [1, 5] was 10,200 ng × h/ml and the Cmax [1, 5] was 1,410 ng/ml. For the same compound, the Tmax [1, 5] was 2.0 h, the “Plasma concentration of CC-11050” value ([1]; single oral dose 50 mg/kg CC-11050 only, 1 h) was 1,331.6 ± 136.97 ng/ml and the “Plasma concentration of CC-11050” value ([1]; single oral dose 50 mg/kg CC-11050 only, 2 h) was 1,409.47 ± 140.85 ng/ml. The “Plasma concentration of CC-11050” value ([1]; single oral dose 50 mg/kg CC-11050 only, 5 h) was 948.85 ± 128.7 ng/mL, the “Plasma concentration of CC-11050” value ([1]; single oral dose 50 mg/kg CC-11050 only, 8 h) was 820.6 ± 265.98 ng/mL and the “Plasma concentration of CC-11050” value ([1]; single oral dose 50 mg/kg CC-11050 only, 24 h) was 1.27 ± 1.1 ng/mL. The “Time to peak plasma concentration (Tmax)” value ([1]; single oral dose, each of three dose levels 5, 25, 50 mg/kg) was 1 to 2 h, the “Difference in number of lung CFUs versus untreated mice” value [2] was “No significant difference” and the Lung bacillary load ([2]; po) was “about 5.5 log10”. The “Impact on size and structure of lung lesions” value (lung granulomas) was “no significant impact”, the Cmax ([3]; 50 mg/kg) was 163 ng/mL and the Tmax ([3]; 50 mg/kg) was 4 h. For the same compound, the “Effect of INH on the pharmacokinetics of CC-11050” value [3] was “no effects”.
